According to patent publication US10544106B2, “Certain chemical entities, compositions, and methods” (NeuPharma, Inc., priority 2016, dated 2020):

Molecular target: BTK (Homo sapiens (Human), UniProt Q06187)
Assay: Z'-LYTE kinase inhibition assay against BTK
Type: biochemical
Conditions: for inhibition at 0.1 µM: compound at 100 nM, ATP concentration at Km; for IC50: series of concentrations, GraphPad Prism 5
Method in brief: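 Compounds were titrated over 10 points (3-fold steps, 1% DMSO) against BTK (1.04-10.4 ng) using Tyr 01 substrate at 2 μM and ATP at Km, pH 7.5 HEPES buffer with MgCl2 and EGTA. After one hour each of reaction and development at room temperature, fluorescence gave percent inhibition and IC50.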

Chain of BTK (Q06187 whole entry): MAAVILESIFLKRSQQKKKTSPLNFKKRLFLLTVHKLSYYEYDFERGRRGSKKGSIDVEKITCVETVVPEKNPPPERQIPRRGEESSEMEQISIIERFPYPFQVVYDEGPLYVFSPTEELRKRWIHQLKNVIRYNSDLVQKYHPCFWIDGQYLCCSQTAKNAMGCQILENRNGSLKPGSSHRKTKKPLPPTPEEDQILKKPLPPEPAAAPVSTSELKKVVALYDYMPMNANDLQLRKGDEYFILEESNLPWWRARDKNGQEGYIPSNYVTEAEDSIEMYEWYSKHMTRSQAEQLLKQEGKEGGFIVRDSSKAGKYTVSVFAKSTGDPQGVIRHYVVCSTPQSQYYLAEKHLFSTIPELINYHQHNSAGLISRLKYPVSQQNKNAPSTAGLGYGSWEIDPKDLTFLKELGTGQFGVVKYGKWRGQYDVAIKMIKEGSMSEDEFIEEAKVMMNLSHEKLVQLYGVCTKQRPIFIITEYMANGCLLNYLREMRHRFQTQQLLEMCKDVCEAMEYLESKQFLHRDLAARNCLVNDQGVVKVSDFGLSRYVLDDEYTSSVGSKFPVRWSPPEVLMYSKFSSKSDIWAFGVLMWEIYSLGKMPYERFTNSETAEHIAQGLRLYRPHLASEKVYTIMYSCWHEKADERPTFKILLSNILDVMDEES

SMILES | inhibition at 0.1 µM [%] | IC50 [nM]
C=CC(=O)Nc1cccc(-c2cc(-c3ccc(C(=O)Nc4cc(C(N)=O)ccn4)cc3Cl)cc3cncnc23)c1 [C134, 2-(4-(8-(3-acrylamidophenyl)quinazolin-6-yl)-3-chlorobenzamido)isonicotinamide] | > 50 | –
C=CC(=O)N1CCCC(c2nc(-c3ccc(Oc4ccccn4)cc3)n3c(N)nccc23)C1 (centres unmarked) [C243, 1-(3-(5-amino-3-(4-(pyridin-2-yloxy)phenyl)imidazo[1,5-c]pyrimidin-1-yl)piperidin-1-yl)prop-2-en-1-one] | – | < 100
C=CC(=O)N1CCC(c2nc(-c3ccc(Oc4ccccn4)c(F)c3)n3c(N)nccc23)C1 (centres unmarked) [C208, 1-(3-(5-amino-3-(3-fluoro-4-(pyridin-2-yloxy)phenyl)imidazo[1,5-c]pyrimidin-1-yl)pyrrolidin-1-yl)prop-2-en-1-one] | > 50 | < 100
C=CC(=O)N1CCC(c2nc(-c3ccc(Oc4cc(C(F)(F)F)ccn4)c(OC)c3)n3c(N)nccc23)C1 (centres unmarked) [C221, 1-(3-(5-amino-3-(3-methoxy-4-((4-(trifluoro-methyl)pyridin-2-yl)oxy)phenyl)imidazo[1,5-c]pyrimidin-1-yl)pyrrolidin-1-yl)prop-2-en-1-one] | > 50 | –
C=CC(=O)Nc1cccc(-c2cc(-c3ccc(Nc4cccc(C(F)(F)F)c4)cc3)cc3cncnc23)c1 [C019, N-(3-(6-(4-((3-(trifluoromethyl)phenyl)amino)phenyl)quinazolin-8-yl)phenyl)acrylamide] | < 50 | –
C=CC(=O)Nc1cccc(-c2cc(-c3cncc(C(F)(F)F)c3)cc3cncnc23)c1 [C055, N-(3-(6-(5-(trifluoromethyl)pyridin-3-yl)quinazolin-8-yl)phenyl)acrylamide] | > 50 | –
C=CC(=O)N1CCC(c2nc(-c3ccc(Oc4cc(OC)ccn4)c(F)c3)n3c(N)nccc23)C1 (centres unmarked) [C216, 1-(3-(5-amino-3-(3-fluoro-4-((4-methoxy-pyridin-2-yl)oxy)phenyl)imidazo[1,5-c]pyrimidin-1-yl)pyrrolidin-1-yl)prop-2-en-1-one] | > 50 | < 100
C=CC(=O)Nc1cccc(-c2cc(-c3ccc(C(=O)Nc4ncccc4F)cc3Cl)c(N)c3cncnc23)c1 [C217, 4-(8-(3-acrylamidophenyl)-5-aminoquinazolin-6-yl)-3-chloro-N-(3-fluoropyridin-2-yl)benzamide] | > 50 | –
C=CC(=O)N1CCC(c2cc(-c3ccc(C(=O)Nc4cc(C5CC5)ccn4)cc3)cc3cncnc23)C1 (centres unmarked) [C123, 4-(8-(1-acryloylpyrrolidin-3-yl)quinazolin-6-yl)-N-(4-cyclopropylpyridin-2-yl)benzamide] | > 50 | –
C=CC(=O)N1CCC(c2cc(-c3ccc(Oc4ccccc4)cc3)cc3cnc(N)nc23)C1 (centres unmarked) [C078, 1-(3-(2-amino-6-(4-phenoxyphenyl)quinazolin-8-yl)pyrrolidin-1-yl)prop-2-en-1-one] | > 50 | < 100
CC#CC(=O)N1CCCC(c2nc(-c3ccc(Oc4ccccn4)cc3)n3c(N)nccc23)C1 (centres unmarked) [C244, 1-(3-(5-amino-3-(4-(pyridin-2-yloxy)phenyl)imidazo[1,5-c]pyrimidin-1-yl)piperidin-1-yl)but-2-yn-1-one] | – | < 100
C=CC(=O)Nc1cccc(-c2cc(-c3ccc(C(=O)Nc4ccccn4)cc3F)c(N)c3cncnc23)c1 [C177, 4-(8-(3-acrylamidophenyl)-5-aminoquinazolin-6-yl)-3-fluoro-N-(pyridin-2-yl)benzamide] | < 50 | –
C=CC(=O)N1CCC(c2nc(-c3ccc(Oc4ncccc4F)cc3)n3c(N)nccc23)C1 (centres unmarked) [C226, 1-(3-(5-amino-3-(4-((3-fluoropyridin-2-yl)oxy)phenyl)imidazo[1,5-c]pyrimidin-1-yl)pyrrolidin-1-yl)prop-2-en-1-one] | > 50 | –
C=CC(=O)N1CCC(c2cc(-c3ccccc3)cc3cncnc23)C1 (centres unmarked) [C047, 1-(3-(6-phenylquinazolin-8-yl)pyrrolidin-1-yl)prop-2-en-1-one] | > 50 | –
CC#CC(=O)N1CCC(c2nc(-c3ccc(C(=O)Nc4cc(C5CC5)ccn4)cc3)n3c(N)ncnc23)C1 (centres unmarked) [C237, 4-(4-amino-8-(1-(but-2-ynoyl)pyrrolidin-3-yl)imidazo[1,5-a][1,3,5]triazin-6-yl)-N-(4-cyclopropylpyridin-2-yl)benzamide] | – | < 100
C=CC(=O)Nc1cccc(-c2cc(-c3ccc(C(=O)Nc4cc(C5CC5)ccn4)cc3F)c(N)c3cncnc23)c1 [C202, 4-(8-(3-acrylamidophenyl)-5-aminoquinazolin-6-yl)-N-(4-cyclopropylpyridin-2-yl)-3-fluorobenzamide] | > 50 | –
C=CC(=O)N1CCC(c2nc(-c3ccc(Oc4ncccc4C#N)cc3)n3c(N)nccc23)C1 (centres unmarked) [C227, 2-(4-(1-(1-acryloylpyrrolidin-3-yl)-5-amino-imidazo[1,5-c]pyrimidin-3-yl)phenoxy)nicotinonitrile] | > 50 | –
C=CC(=O)Nc1cccc(-c2cc(-c3ccc(C(=O)Nc4ccccn4)nc3)cc3cncnc23)c1 [C069, 5-(8-(3-acrylamidophenyl)quinazolin-6-yl)-N-(pyridin-2-yl)picolinamide] | > 50 | –

SMILES | inhibition at 0.1 µM [%] | IC50 [nM]
C=CC(=O)Nc1cccc(-c2cc(-c3ccc(Oc4ccccn4)cc3OC)cc3cnc(N)nc23)c1 [C166, N-(3-(2-amino-6-(2-methoxy-4-(pyridin-2-yloxy)phenyl)quinazolin-8-yl)phenyl)acrylamide] | > 50 | < 100
C=CC(=O)N1CCC(c2cc(-c3ccc(C(=O)Nc4cccc(C)c4)nc3)cc3cncnc23)C1 (centres unmarked) [C080, 5-(8-(1-acryloylpyrrolidin-3-yl)quinazolin-6-yl)-N-(m-tolyl)picolinamide] | < 50 | –
C=CC(=O)Nc1cccc(-c2cc(-c3ccccc3)cc3cnc(-c4ccccc4)nc23)c1 [C001, N-(3-(2,6-diphenylquinazolin-8-yl)phenyl)acrylamide] | < 50 | –
C=CC(=O)Nc1cccc(-c2cc(-c3ccnc(C(F)(F)F)c3)cc3cncnc23)c1 [C018, N-(3-(6-(2-(trifluoromethyl)pyridin-4-yl)quinazolin-8-yl)phenyl)acrylamide] | < 50 | –
C=CC(=O)N1CCC(c2cc(-c3ccc(C(=O)Nc4cc(OC)ccn4)cc3F)n3cnccc23)C1 (centres unmarked) [C150, 4-(5-(1-acryloylpyrrolidin-3-yl)pyrrolo[1,2-c]pyrimidin-7-yl)-3-fluoro-N-(4-methoxypyridin-2-yl)benzamide] | < 50 | –
C=CC(=O)Nc1cccc(-c2cc(-c3ccc(Oc4cc(C(N)=O)ccn4)cc3F)cc3cncnc23)c1 [C194, 2-(4-(8-(3-acrylamidophenyl)quinazolin-6-yl)-3-fluorophenoxy)isonicotinamide] | > 50 | < 100
C=CC(=O)Nc1cccc(-c2cc(-c3ccc(Oc4cc(C(F)(F)F)ccn4)cc3)c(N)c3cncnc23)c1 [C188, N-(3-(5-amino-6-(4-((4-(trifluoromethyl)pyridin-2-yl)oxy)phenyl)quinazolin-8-yl)phenyl)acrylamide] | < 50 | > 100
C=CC(=O)Nc1cccc(-c2cc(-c3ccc(C(=O)Nc4ccccn4)cc3C#N)cc3cncnc23)c1 [C201, 4-(8-(3-acrylamidophenyl)quinazolin-6-yl)-3-cyano-N-(pyridin-2-yl)benzamide] | > 50 | < 100
C=CC(=O)Nc1cccc(-c2cc(-c3ccc(Oc4ccccn4)c(OC)c3)cc3cncnc23)c1 [C119, N-(3-(6-(3-methoxy-4-(pyridin-2-yloxy)phenyl)quinazolin-8-yl)phenyl)acrylamide] | > 50 | –
C=CC(=O)N1CCC(c2cc(-c3ccc(C(=O)Nc4ccccn4)cc3F)cc3cncnc23)C1 (centres unmarked) [C094, 4-(8-(1-acryloylpyrrolidin-3-yl)quinazolin-6-yl)-3-fluoro-N-(pyridin-2-yl)benzamide] | < 50 | –
C=CC(=O)N1CCC(c2cc(-c3ccc(Oc4cccc(F)c4)nc3)cc3cncnc23)C1 (centres unmarked) [C095, 1-(3-(6-(6-(3-fluorophenoxy)pyridin-3-yl)quinazolin-8-yl)pyrrolidin-1-yl)prop-2-en-1-one] | < 50 | –
C=CC(=O)Nc1cccc(-c2cc(-c3ccc(C(=O)Nc4cc(C)ccn4)cc3)cc3cnc(N)nc23)c1 [C036, 4-(8-(3-acrylamidophenyl)-2-aminoquinazolin-6-yl)-N-(4-methylpyridin-2-yl)benzamide] | < 50 | –
C=CC(=O)N1CCC(c2cc(-c3ccc(C(=O)Nc4cc(C#N)ccn4)c(F)c3)n3cnccc23)C1 (centres unmarked) [C172, 4-(5-(1-acryloylpyrrolidin-3-yl)pyrrolo[1,2-c]pyrimidin-7-yl)-N-(4-cyanopyridin-2-yl)-2-fluorobenzamide] | < 50 | –
C=CC(=O)Nc1cccc(-c2cc(-c3ccccc3C#N)cc3cncnc23)c1 [C075, N-(3-(6-(2-cyanophenyl)quinazolin-8-yl)phenyl)acrylamide] | > 50 | < 100
C=CC(=O)Nc1cccc(-c2cc(-c3ccc(C(=O)Nc4ccccn4)cc3)cc3cnc(N)nc23)c1 [C040, 4-(8-(3-acrylamidophenyl)-2-aminoquinazolin-6-yl)-N-(pyridin-2-yl)benzamide] | < 50 | –
C=CC(=O)Nc1cccc(-c2cc(-c3ccc(C(=O)Nc4cc(C#N)ccn4)cc3F)cc3cncnc23)c1 [C154, 4-(8-(3-acrylamidophenyl)quinazolin-6-yl)-N-(4-cyanopyridin-2-yl)-3-fluorobenzamide] | > 50 | –
C=CC(=O)Nc1cccc(-c2cc(-c3ccc(C(=O)Nc4ccccn4)cc3F)cc3cncnc23)c1 [C087, 4-(8-(3-Acrylamidophenyl)quinazolin-6-yl)-3-fluoro-N-(pyridin-2-yl)benzamide] | < 50 | –
C=CC(=O)N1CCCC(c2cc(-c3cccnc3)cc3cnc(N)nc23)C1 (centres unmarked) [C045, 1-(3-(2-amino-6-(pyridin-3-yl)quinazolin-8-yl)piperidin-1-yl)prop-2-en-1-one] | < 50 | –
